# According to the supplement of paper PMC10307832:
# Key:
# Experiment in all cases: relative viability (nuclei count vs DMSO), 5 days (fraction); higher = more cells survive
# [1] = compound: CCN1CCN(c2ccc(Nc3cc(N(C)C(=O)Nc4c(Cl)c(OC)cc(OC)c4Cl)ncn3)cc2)CC1 [BGJ398] + NC(=O)Nc1cc(-c2cccc(F)c2)sc1C(=O)N[C@H]1CCCNC1 [AZD7762] (partner 0.2 µM)
# Method in brief: (§1)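 Cells from lung cancer lines were seeded into 1536-well plates and, one day later, dosed by pin tool. Treatments were either a single drug or a fixed dose of an anchor drug with five library-drug doses (not always all listed) in √10 steps. After 5 days, nuclei were stained in a one-step fixation (final 0.05% Triton X-100, 1% formaldehyde, 1 ug/ml Hoechst) and counted on 4× images, and relative viability is the treated-to-vehicle nuclei ratio, as the median of duplicate plates.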
# [2] = compound: C1=CC2=NC=CN=C2C=C1/C=C/3\C(=O)NC(=O)S3 + C[C@@H](Oc1cc(-c2cnn(C3CCNCC3)c2)cnc1N)c1c(Cl)ccc(F)c1Cl [Crizotinib] (partner 1 µM)
# Method in brief: as §1
# [3] = compound: CCN1CCN(c2ccc(Nc3cc(N(C)C(=O)Nc4c(Cl)c(OC)cc(OC)c4Cl)ncn3)cc2)CC1 [BGJ398] + CC(C)C[C@H](NC(=O)[C@H](Cc1ccccc1)NC(=O)c1cnccn1)B(O)O [Bortezomib] (partner 0.002 µM)
# Method in brief: as §1
# [4] = compound: C1=CC2=NC=CN=C2C=C1/C=C/3\C(=O)NC(=O)S3 + CC(C)C[C@H](NC(=O)[C@H](Cc1ccccc1)NC(=O)c1cnccn1)B(O)O [Bortezomib] (partner 0.002 µM)
# Method in brief: as §1
Cell Line,relative viability ([1]; first compound 0.01 µM),relative viability ([1]; first compound 0.03162 µM),relative viability ([1]; first compound 0.1 µM),relative viability ([1]; first compound 0.3162 µM),relative viability ([1]; first compound 1 µM),relative viability ([2]; first compound 0.02 µM),relative viability ([2]; first compound 0.06325 µM),relative viability ([2]; first compound 0.2 µM),relative viability ([2]; first compound 0.6325 µM),relative viability ([2]; first compound 2 µM),relative viability ([3]; first compound 0.01 µM),relative viability ([3]; first compound 0.03162 µM),relative viability ([3]; first compound 0.1 µM),relative viability ([3]; first compound 0.3162 µM),relative viability ([3]; first compound 1 µM),relative viability ([4]; first compound 0.02 µM),relative viability ([4]; first compound 0.06325 µM),relative viability ([4]; first compound 0.2 µM),relative viability ([4]; first compound 0.6325 µM),relative viability ([4]; first compound 2 µM)
NCI-H3122,0.51,1,1.04,1.02,1.17,0.298,0.253,0.277,0.265,0.203,1.04,0.998,1,1.02,1.09,1.02,1.01,1,1.08,0.975
NCI-H1975,0.767,0.711,0.78,0.666,0.606,1.02,1.01,0.937,1.03,0.97,0.431,0.405,0.404,0.384,0.319,0.355,0.365,0.401,0.368,0.36
NCI-H1944,0.561,0.536,0.484,0.439,0.516,1.07,1.06,1.01,0.993,1.1,,,,,,,,,,
LU99A,0.429,0.336,0.4,0.234,0.273,0.613,0.597,0.564,0.415,0.431,1.08,1.23,1.23,1.13,1.09,1.09,1.32,1.41,1.07,0.747
SW 1573,,,,,,0.729,0.816,0.825,0.831,0.742,0.948,1.05,0.909,0.964,0.91,0.996,1.21,1.17,0.835,0.95
NCI-H2347,0.811,0.801,0.837,0.814,0.851,0.679,0.645,0.672,0.717,0.916,0.737,0.835,0.9,0.88,0.784,0.769,1.17,1.05,0.932,0.926
NCI-H2009,,,,,,1.06,1.1,1.05,1.04,1.03,0.918,1.09,0.955,0.978,1.14,0.954,1.07,1.11,0.969,0.801
HCC-15,1.15,1.06,1.24,1.17,1.39,0.822,0.897,0.817,0.747,0.716,1.01,0.997,1.04,1.08,1.06,1.01,0.995,1.04,0.99,0.966
COR-L23,,,,,,0.65,0.649,0.576,0.582,0.699,0.942,0.975,1.08,0.855,0.99,0.906,0.947,0.972,0.95,0.941
NCI-H1299,,,,,,0.955,1.03,0.932,0.89,0.986,0.982,1.06,1.02,1.01,1.01,1.04,1.04,1.04,1.03,1.06
NCI-H1650,,,,,,0.91,1.19,0.974,0.966,1.22,0.22,0.203,0.184,0.174,0.19,0.207,0.173,0.219,0.201,0.213
NCI-H1793,0.466,0.406,0.473,0.434,0.419,,,,,,,,,,,,,,,
COR-L 105,,,,,,0.613,0.887,0.905,0.814,0.711,0.717,0.514,0.703,0.792,0.73,0.717,0.887,0.864,0.759,0.755
NCI-H2228,,,,,,0.407,0.433,0.587,0.294,0.428,1.34,1.08,0.782,0.942,0.925,0.948,0.881,1.23,1.06,0.82
NCI-H1648,0.873,,0.759,0.55,0.387,,,,,,,,,,,,,,,
NCI-H661,,,,,,0.87,0.809,0.945,1,0.987,0.7,0.905,0.799,0.767,1,0.925,0.614,0.812,0.751,0.95
NCI-H1563,,,,,,0.842,0.898,0.86,0.861,0.831,0.931,0.802,0.778,0.674,0.71,0.828,0.788,0.871,0.753,0.715
A549,,,,,,0.791,0.901,0.782,0.671,0.646,,,,,,,,,,
NCI-H522,0.864,0.686,0.812,0.836,0.853,,,,,,,,,,,,,,,
NCI-H2170,0.906,0.843,1.01,0.861,0.912,1.14,1.22,1.2,1.16,1.34,,,,,,,,,,
SW 900,0.757,0.514,0.572,0.36,0.532,,,,,,,,,,,,,,,
NCI-H1395,0.372,0.366,0.355,0.352,0.352,,,,,,,,,,,,,,,
IA-LM,,,,,,0.654,,0.857,0.998,0.718,0.741,0.928,0.905,0.822,0.788,0.654,0.918,0.865,0.788,0.728
NCI-H358,,0.473,0.591,0.507,0.725,0.732,0.568,0.561,0.551,0.573,,,,,,,,,,
EBC-1,,,,,,0.17,0.217,0.21,0.178,0.171,0.616,0.614,0.589,0.53,0.526,0.538,0.648,0.587,0.546,0.816
